Format in all cases: binding
In one experiment the test system is AMPKa1 or AMPKa2. Nature of the experiment: Probe-based (AX9989) kinase profiling in Jurkat lysate: AMPKa1 or AMPKa2. Put shortly:
(§1)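 Percent inhibition was derived from reduced LC/MS fragment intensities of probe-labeled peptides relative to compound-free controls. Before labeling with 5 μM AX9989, Mn2+-supplemented (20 mM) Jurkat lysate was exposed to compound for 15 min at room temperature.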

In another experiment the target is T1, TAO2 (Homo sapiens, UniProt Q9UL54).
T1 construct: screened for activity against several kinases in Jurkat cells; endogenous in cells; host or cells: Jurkat cell lysate
T1 sequence (Q9UL54 1-1235): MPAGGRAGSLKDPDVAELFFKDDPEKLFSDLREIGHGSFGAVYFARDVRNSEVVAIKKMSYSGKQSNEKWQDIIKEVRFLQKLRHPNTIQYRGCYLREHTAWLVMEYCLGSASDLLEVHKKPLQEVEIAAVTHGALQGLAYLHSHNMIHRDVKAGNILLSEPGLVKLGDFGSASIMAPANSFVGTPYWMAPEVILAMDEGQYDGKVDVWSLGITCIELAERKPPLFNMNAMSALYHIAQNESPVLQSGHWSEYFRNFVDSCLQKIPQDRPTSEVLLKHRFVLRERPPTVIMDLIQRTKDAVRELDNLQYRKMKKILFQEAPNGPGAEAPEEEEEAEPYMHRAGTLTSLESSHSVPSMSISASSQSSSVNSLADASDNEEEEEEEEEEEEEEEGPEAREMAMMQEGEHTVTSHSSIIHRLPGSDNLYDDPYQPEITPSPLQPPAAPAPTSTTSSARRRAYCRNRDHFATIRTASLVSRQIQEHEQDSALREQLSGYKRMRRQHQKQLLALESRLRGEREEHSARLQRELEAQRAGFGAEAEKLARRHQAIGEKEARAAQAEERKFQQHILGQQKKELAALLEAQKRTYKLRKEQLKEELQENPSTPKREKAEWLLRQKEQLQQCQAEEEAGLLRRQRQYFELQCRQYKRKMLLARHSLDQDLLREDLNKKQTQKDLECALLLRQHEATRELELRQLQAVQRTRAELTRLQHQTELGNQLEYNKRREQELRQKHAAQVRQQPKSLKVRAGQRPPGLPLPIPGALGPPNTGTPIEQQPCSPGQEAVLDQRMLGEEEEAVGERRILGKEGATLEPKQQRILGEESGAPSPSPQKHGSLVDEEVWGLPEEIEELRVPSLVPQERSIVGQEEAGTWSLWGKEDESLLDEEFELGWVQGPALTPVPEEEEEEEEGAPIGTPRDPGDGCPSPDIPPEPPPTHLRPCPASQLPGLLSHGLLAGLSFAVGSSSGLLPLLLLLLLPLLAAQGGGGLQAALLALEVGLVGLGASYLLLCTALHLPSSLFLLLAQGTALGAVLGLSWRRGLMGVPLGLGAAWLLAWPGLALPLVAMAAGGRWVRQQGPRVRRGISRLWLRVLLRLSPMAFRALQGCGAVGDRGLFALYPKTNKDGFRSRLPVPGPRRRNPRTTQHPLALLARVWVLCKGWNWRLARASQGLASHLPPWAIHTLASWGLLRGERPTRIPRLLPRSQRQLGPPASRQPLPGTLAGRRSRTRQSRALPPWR
Kind of experiment: Probe-based (AX9989) kinase profiling in Jurkat lysate: TAO2. Conditions: for inhibition at 0.1 µM: screening concentration 0.1 μM. Put shortly: as §1

Another experiment addresses T2, ACK (Homo sapiens, UniProt Q07912).
T2 construct: screened for activity against several kinases in Jurkat cells; endogenous in cells; host or cells: Jurkat cell lysate
Nature of the experiment: Probe-based (AX9989) kinase profiling in Jurkat lysate: ACK. Conditions: for inhibition at 0.1 µM: screening concentration 0.1 μM. Put shortly: as §1

The target in another experiment is T3, AurA (Homo sapiens, UniProt O14965).
T3 construct: screened for activity against several kinases in Jurkat cells; endogenous in cells; host or cells: Jurkat cell lysate
T3 sequence (O14965 1-403): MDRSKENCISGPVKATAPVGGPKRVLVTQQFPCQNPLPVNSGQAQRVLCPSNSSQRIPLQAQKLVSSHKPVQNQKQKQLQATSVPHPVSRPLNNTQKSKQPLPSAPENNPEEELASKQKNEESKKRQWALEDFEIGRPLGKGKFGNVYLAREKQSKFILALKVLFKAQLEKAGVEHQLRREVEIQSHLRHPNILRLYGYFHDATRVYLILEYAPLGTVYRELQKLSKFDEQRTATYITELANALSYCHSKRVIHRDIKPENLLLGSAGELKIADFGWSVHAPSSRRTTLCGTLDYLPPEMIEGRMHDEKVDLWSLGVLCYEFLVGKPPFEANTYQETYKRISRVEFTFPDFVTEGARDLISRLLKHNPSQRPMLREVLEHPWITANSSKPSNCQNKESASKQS
Kind of experiment: Probe-based (AX9989) kinase profiling in Jurkat lysate: AurA. Conditions: for inhibition at 0.1 µM: screening concentration 0.1 μM. An outline of the steps: as §1

In the next experiment the target is T4, JAK1 (Homo sapiens, UniProt P23458).
T4 construct: screened for activity against several kinases in Jurkat cells; endogenous in cells; host or cells: Jurkat cell lysate
Nature of the experiment: Probe-based (AX9989) kinase profiling in Jurkat lysate: JAK1. The note with it: for inhibition at 0.1 µM: screening concentration 0.1 μM. Put shortly:
as §1

Setting [1] is: read-out: Kinase inhibition % at indicated screening concentration: TAO2.
Setting [2] is: read-out: Kinase inhibition % at indicated screening concentration: ACK.
Setting [3] is: read-out: Kinase inhibition % at indicated screening concentration: AurA.
Where [4] appears, read: read-out: Kinase inhibition % at indicated screening concentration: JAK1.
The mark [5] stands for this setting: screening concentration 1.0 μM, read-out: Kinase inhibition % at indicated screening concentration: TAO2.
The mark [6] stands for this setting: screening concentration 1.0 μM, read-out: Kinase inhibition % at indicated screening concentration: ACK.
Setting [7] is: screening concentration 1.0 μM, read-out: Kinase inhibition % at indicated screening concentration: AurA.
The mark [8] stands for this setting: screening concentration 1.0 μM, read-out: Kinase inhibition % at indicated screening concentration: JAK1.

Each structure is given as a SMILES string. Like-named read-outs stand apart in the source and are kept apart here.

We go through 16 molecules from patent publication US20170008888A1 (KYORIN PHARMACEUTICAL CO., LTD., priority 2014, published 2017).

T2 sequence (Q07912 whole entry): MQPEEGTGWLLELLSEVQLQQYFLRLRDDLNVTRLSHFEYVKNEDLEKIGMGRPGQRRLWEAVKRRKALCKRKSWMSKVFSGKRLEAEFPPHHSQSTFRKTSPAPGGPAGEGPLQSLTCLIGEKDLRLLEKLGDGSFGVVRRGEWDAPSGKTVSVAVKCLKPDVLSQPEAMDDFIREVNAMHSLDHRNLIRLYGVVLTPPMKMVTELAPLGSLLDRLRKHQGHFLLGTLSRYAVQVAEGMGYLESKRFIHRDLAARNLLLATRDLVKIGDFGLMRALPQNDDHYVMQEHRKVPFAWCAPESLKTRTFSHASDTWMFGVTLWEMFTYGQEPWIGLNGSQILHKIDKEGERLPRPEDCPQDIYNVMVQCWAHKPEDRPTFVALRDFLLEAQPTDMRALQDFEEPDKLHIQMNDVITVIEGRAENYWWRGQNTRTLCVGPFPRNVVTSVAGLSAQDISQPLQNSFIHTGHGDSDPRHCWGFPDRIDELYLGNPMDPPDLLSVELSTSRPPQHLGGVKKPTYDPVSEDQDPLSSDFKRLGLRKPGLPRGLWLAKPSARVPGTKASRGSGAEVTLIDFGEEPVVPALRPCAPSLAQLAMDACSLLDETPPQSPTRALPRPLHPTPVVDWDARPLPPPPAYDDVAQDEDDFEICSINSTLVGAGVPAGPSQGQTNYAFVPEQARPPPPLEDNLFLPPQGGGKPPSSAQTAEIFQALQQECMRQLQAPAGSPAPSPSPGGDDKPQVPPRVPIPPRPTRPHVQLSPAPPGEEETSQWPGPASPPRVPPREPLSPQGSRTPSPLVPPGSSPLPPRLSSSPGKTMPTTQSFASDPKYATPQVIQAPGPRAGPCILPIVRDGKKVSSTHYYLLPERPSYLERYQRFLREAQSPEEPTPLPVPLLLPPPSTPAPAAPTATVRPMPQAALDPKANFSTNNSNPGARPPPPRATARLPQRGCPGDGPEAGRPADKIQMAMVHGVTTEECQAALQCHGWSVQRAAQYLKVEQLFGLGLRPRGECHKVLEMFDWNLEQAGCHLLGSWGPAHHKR
T4 sequence (P23458 whole entry): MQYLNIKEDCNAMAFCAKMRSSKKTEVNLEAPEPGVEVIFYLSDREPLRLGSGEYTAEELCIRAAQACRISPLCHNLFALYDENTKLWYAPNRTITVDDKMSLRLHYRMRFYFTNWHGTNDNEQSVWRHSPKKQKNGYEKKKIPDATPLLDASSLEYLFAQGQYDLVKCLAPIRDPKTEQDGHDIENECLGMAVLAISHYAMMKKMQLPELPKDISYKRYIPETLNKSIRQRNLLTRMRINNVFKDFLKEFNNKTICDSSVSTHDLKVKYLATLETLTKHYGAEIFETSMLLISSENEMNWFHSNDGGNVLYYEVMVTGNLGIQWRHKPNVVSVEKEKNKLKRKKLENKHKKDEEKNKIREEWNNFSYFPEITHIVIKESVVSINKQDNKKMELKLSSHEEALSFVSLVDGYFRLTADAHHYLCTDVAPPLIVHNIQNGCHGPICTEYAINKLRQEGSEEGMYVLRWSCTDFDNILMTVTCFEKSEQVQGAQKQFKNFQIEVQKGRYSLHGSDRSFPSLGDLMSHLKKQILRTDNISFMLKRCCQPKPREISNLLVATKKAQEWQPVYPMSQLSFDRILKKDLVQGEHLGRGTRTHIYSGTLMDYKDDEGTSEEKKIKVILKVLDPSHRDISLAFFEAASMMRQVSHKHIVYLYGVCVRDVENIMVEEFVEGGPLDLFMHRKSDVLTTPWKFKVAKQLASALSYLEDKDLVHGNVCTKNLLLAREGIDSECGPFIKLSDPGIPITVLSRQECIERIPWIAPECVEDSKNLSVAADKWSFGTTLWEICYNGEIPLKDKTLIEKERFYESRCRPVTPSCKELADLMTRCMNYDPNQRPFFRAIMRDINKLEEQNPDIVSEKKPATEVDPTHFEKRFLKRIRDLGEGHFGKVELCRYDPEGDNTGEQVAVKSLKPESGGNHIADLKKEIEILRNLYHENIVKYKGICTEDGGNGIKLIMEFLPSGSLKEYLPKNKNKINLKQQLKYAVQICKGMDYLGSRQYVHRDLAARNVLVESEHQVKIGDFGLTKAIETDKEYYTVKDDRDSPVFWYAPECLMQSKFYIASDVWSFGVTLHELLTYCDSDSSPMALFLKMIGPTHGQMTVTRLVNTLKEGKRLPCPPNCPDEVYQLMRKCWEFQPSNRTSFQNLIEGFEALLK

On to `CCOc1cc(C(=O)N2CCC[C@H](O)C2)ccc1Nc1cc2c(cn1)N(C)C(=O)c1ccccc1N2C` [Compound 96], for which, in the experiment with AMPKa1 or AMPKa2 (screening concentration 0.1 μM), the “Kinase inhibition % at indicated screening concentration: AMPKa1 or AMPKa2” value (“Kinase inhibition %” for short) is given as “E (E is ≦35%)”. Also, the inhibition at 0.1 µM at TAO2 (setting [1]), at ACK (setting [2]), on AurA (setting [3]) and on JAK1 (setting [4]) was not above 35% in each case.
`CCOc1cc(C(=O)N[C@H]2CCCOC2)ccc1Nc1cc2c(cn1)N(C)C(=O)c1ccccc1N2C` [Compound 100]: the “Kinase inhibition %” value in the experiment with AMPKa1 or AMPKa2 (screening concentration 1.0 μM) is recorded as “E (E is ≦35%)”. In addition, the inhibition at 1 µM at TAO2 (setting [5]), on ACK (setting [6]), on AurA (setting [7]) and at JAK1 (setting [8]) was not above 35% in each case.
For the molecule `CCOc1cc(C(=O)NCCOCCO)ccc1Nc1cc2c(cn1)N(C)C(=O)c1ccccc1N2C` [Compound 101], the “Kinase inhibition %” value in the experiment with AMPKa1 or AMPKa2 (screening concentration 1.0 μM) is on record as “E (E is ≦35%)”. The inhibition at 1 µM at TAO2 (setting [5]), at ACK (setting [6]), at AurA (setting [7]) and on JAK1 (setting [8]) was not above 35% in each case.
`CN1C(=O)c2ccccc2N(C)c2cc(NC3CCOCC3)ncc21` [Compound 102]: the “Kinase inhibition %” value in the experiment on AMPKa1 or AMPKa2 (screening concentration 1.0 μM) is “E (E is ≦35%)”. Also, the inhibition at 1 µM on TAO2 (setting [5]), on ACK (setting [6]), at AurA (setting [7]) and at JAK1 (setting [8]) was not above 35% each time.
Regarding `CCOc1cc(C(=O)NCCN(CC)CC)ccc1Nc1cc2c(cn1)N(C)C(=O)c1ccccc1N2C` [Compound 103], the “Kinase inhibition %” value in the experiment with AMPKa1 or AMPKa2 (screening concentration 0.1 μM) is “E (E is ≦35%)”. The inhibition at 0.1 µM on TAO2 (setting [1]), on ACK (setting [2]), on AurA (setting [3]) and on JAK1 (setting [4]) was not above 35% throughout.
As to `CCOc1cc(C(=O)NCCN2CCCC2)ccc1Nc1cc2c(cn1)N(C)C(=O)c1ccccc1N2C` [Compound 105], the “Kinase inhibition %” value in the experiment on AMPKa1 or AMPKa2 (screening concentration 1.0 μM) is on record as “E (E is ≦35%)”. Further, the inhibition at 1 µM at TAO2 (setting [5]), on ACK (setting [6]), at AurA (setting [7]) and on JAK1 (setting [8]) was not above 35% in each case.
As to `Cc1cc(CN2CCCC2)ccc1Nc1cc2c(cn1)N(C)C(=O)c1ccccc1N2C` [Compound 106, 5,11-dimethyl-3-(2-methyl-4-(pyrrolidin-1-ylmethyl)phenylamino)-5H-benzo[e]pyrido[3,4-b][1,4]diazepin-10(11H)-one], in the experiment with AMPKa1 or AMPKa2 (screening concentration 1.0 μM), the “Kinase inhibition %” value was “E (E is ≦35%)”. In addition, the inhibition at 1 µM on TAO2 (setting [5]) was 50 to 75%; at ACK (setting [6]), not above 35%; on AurA (setting [7]) it was not above 35%; on JAK1 (setting [8]) it was not above 35%.
Turning to `CCOc1cc(C(=O)NCCc2ccncc2)ccc1Nc1cc2c(cn1)N(C)C(=O)c1ccccc1N2C` [Compound 107], the “Kinase inhibition %” value in the experiment on AMPKa1 or AMPKa2 (screening concentration 1.0 μM) was “E (E is ≦35%)”. The inhibition at 1 µM at TAO2 (setting [5]), on ACK (setting [6]), on AurA (setting [7]) and on JAK1 (setting [8]) was not above 35% throughout.
On to `CCOc1cc(C(=O)N2CCN(CC)CC2)ccc1Nc1cc2c(cn1)N(C)C(=O)c1ccccc1N2C` [Compound 108], for which the “Kinase inhibition %” value in the experiment with AMPKa1 or AMPKa2 (screening concentration 1.0 μM) was “E (E is ≦35%)”. Also, the inhibition at 1 µM at TAO2 (setting [5]), on ACK (setting [6]), at AurA (setting [7]) and on JAK1 (setting [8]) was not above 35% throughout.
For the molecule `CN1C(=O)c2ccccc2N(C)c2cc(Nc3ccc(C(=O)N4CC[C@@H](N(C)C)C4)cc3F)ncc21` [Compound 110], in the experiment on AMPKa1 or AMPKa2 (screening concentration 10.0 μM), the “Kinase inhibition %” value was “E (E is ≦35%)”. Besides, the inhibition at 10 µM on TAO2 (screening concentration 10.0 μM, read-out: Kinase inhibition % at indicated screening concentration: TAO2) was 50 to 75%; on ACK (screening concentration 10.0 μM, read-out: Kinase inhibition % at indicated screening concentration: ACK), not above 35%; at AurA (screening concentration 10.0 μM, read-out: Kinase inhibition % at indicated screening concentration: AurA), 35 to 50%; at JAK1 (screening concentration 10.0 μM, read-out: Kinase inhibition % at indicated screening concentration: JAK1), not above 35%.
As for `CCOc1cc(C(=O)N2CCOCC2)ccc1Nc1cc2c(cn1)N(C)C(=O)c1ccccc1N2C` [Compound 111], the “Kinase inhibition %” value in the experiment with AMPKa1 or AMPKa2 (screening concentration 1.0 μM) was “E (E is ≦35%)”. Moreover, the inhibition at 1 µM on TAO2 (setting [5]), at ACK (setting [6]), at AurA (setting [7]) and at JAK1 (setting [8]) was not above 35% throughout.
In the case of `CCOc1cc(C(=O)N2CC(N3CCCCC3)C2)ccc1Nc1cc2c(cn1)N(C)C(=O)c1ccccc1N2C` [Compound 114], the “Kinase inhibition %” value with AMPKa1 or AMPKa2 (screening concentration 0.1 μM) is “E (E is ≦35%)”. Also, the inhibition at 0.1 µM on TAO2 (setting [1]), on ACK (setting [2]), at AurA (setting [3]) and at JAK1 (setting [4]) was not above 35% each time.
`CCOc1cc(C(=O)N2CC[C@@H](N(C)C)C2)ccc1Nc1cc2c(cn1)N(C)C(=O)c1ccccc1N2C` [Compound 115]: the “Kinase inhibition %” value in the experiment on AMPKa1 or AMPKa2 (screening concentration 1.0 μM) is reported as “E (E is ≦35%)”. Besides, the inhibition at 1 µM on TAO2 (setting [5]), at ACK (setting [6]), at AurA (setting [7]) and on JAK1 (setting [8]) was not above 35% throughout.
Consider `CCOc1cc(C(=O)N2CCC(CN3CCOCC3)CC2)ccc1Nc1cc2c(cn1)N(C)C(=O)c1ccccc1N2C` [Compound 120], for which the “Kinase inhibition %” value with AMPKa1 or AMPKa2 (screening concentration 1.0 μM) is recorded as “E (E is ≦35%)”. In addition, the inhibition at 1 µM on TAO2 (setting [5]), at ACK (setting [6]), at AurA (setting [7]) and on JAK1 (setting [8]) was not above 35% throughout.
In the case of `CCOc1cc(C(=O)N(CC)CCN(CC)CC)ccc1Nc1cc2c(cn1)N(C)C(=O)c1ccccc1N2C` [Compound 122], the “Kinase inhibition %” value in the experiment on AMPKa1 or AMPKa2 (screening concentration 1.0 μM) is “E (E is ≦35%)”. Besides, the inhibition at 1 µM on TAO2 (setting [5]), on ACK (setting [6]), on AurA (setting [7]) and on JAK1 (setting [8]) was not above 35% throughout.
On to `CCOc1cc(C(=O)N2CCC(NC(C)C)C2)ccc1Nc1cc2c(cn1)N(C)C(=O)c1ccccc1N2C` (centres unmarked) [Compound T4], for which the “AMPKa1 or AMPKa2 Inhibition % at indicated screening concentration” value in the experiment with AMPKa1 or AMPKa2 (screening concentration 1 μM) was “E (E is ≦35%)”. In addition, the inhibition at 1 µM at TAO2 (screening concentration 1 μM, read-out: TAO2 Inhibition % at indicated screening concentration) is not above 35%; at ACK (screening concentration 1 μM, read-out: ACK Inhibition % at indicated screening concentration), not above 35%; on AurA (screening concentration 1 μM, read-out: AurA Inhibition % at indicated screening concentration), not above 35%; at JAK1 (screening concentration 1 μM, read-out: JAK1 Inhibition % at indicated screening concentration), not above 35%.
